Values quoted from earlier work as cited in patent US10709686B2, “Methods for treating pulmonary fibrosis” (David Weinstein Consulting, Inc., priority 2018, dated 2020).

Experiments:
[1] = molecular target: T1, FK506 binding protein 4 (FKBP52) (Homo sapiens, UniProt Q02790)
T1 sequence (Q02790 1-459): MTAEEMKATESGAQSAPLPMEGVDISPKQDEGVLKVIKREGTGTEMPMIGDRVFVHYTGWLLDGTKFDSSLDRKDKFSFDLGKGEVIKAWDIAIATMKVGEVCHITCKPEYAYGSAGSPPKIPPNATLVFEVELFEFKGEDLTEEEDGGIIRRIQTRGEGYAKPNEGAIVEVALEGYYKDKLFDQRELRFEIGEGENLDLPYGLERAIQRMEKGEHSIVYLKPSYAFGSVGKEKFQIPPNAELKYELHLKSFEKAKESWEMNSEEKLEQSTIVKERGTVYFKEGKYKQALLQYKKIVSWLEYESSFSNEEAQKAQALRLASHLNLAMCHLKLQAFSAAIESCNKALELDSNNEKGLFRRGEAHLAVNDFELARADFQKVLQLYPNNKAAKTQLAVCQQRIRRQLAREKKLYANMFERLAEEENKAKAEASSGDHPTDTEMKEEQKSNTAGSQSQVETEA

[2] = molecular target: T2, FKBP52 (Homo sapiens, UniProt Q02790); details: treatment of fibroblasts for 2 hours
T2 construct: endogenous in cells
T2 sequence (Q02790 1-459): T1 sequence (Q02790 1-459)

Binding affinity to FKBP52 [1]: binds with high affinity
SMILES: CCC(C)(C)C(=O)C(=O)N1CCC[C@H]1C(=O)O [RT175]
Translocation of FKBP52 to the nucleus [2]: results in the translocation of FKBP52 to the nucleus
